Reference: publication PMC10635324, “A Multi-Site Phase I Trial of Veliparib with Standard Radiation and Temozolomide in Patients with Newly Diagnosed Glioblastoma Multiforme (GBM)” (Research Square, 2023)
“And” between values parts separate entries of the source, which are not always exact repeats. Equal values may be shown once. Read-outs that look alike come from different tables or passages of the source.

Experiments:
[1] = Plasma pharmacokinetics of veliparib, LC-MS/MS, noncompartmental analysis; format: in vivo, patients; conditions: for Cmax: human, plasma, oral, 10 mg, read-out: Cmax, maximum drug concentration in plasma
Procedure: Patients received a single dose of veliparib one day prior to starting combination therapy with TMZ or RT/TMZ for PK testing after the first single dose as described below. Patients without disease progression, as evaluated by MRI 10-weeks after the initiation of veliparib therapy, received up to four maintenance cycles of the same dose of veliparib in the initial safety cohort or six cycles in phase I veliparib/RT/TMZ cohort. Veliparib was to be given BID for 7 days and TMZ 150–200 mg/m^2 QD for 5 days, repeated every 28 days, with an imaging evaluation after completing every second maintenance cycle.
Plasma samples were collected to define plasma concentration-time profiles. Samples were collected shortly before dosing and at 0.25, 0.5, 1, 2, 3, 4, 6, 8, and 24 hours after the first dose of six weeks of TMZ and again after achieving steady-state conditions on any day of week 3 of the six weeks (omitting the 24 hour specimen). Samples were analyzed by liquid chromatography-mass spectrometry (LC-MS)/mass spectrometry (MS), Agilent 410B Triple Quadrupole LC/MS system (Agilent Technologies, Inc., Santa Clara, CA).
The plasma concentration-time data for veliparib was analyzed by noncompartmental methods using model 200 for extravascular input in WinNonlin Professional version 5.0.1. Samples with concentrations below the LLQ of the assay were excluded. The maximum concentration of the drug achieved in plasma (Cmax) and the time that it occurred (tmax) were based upon the observed values following a given dose. Area under the plasma concentration-time curves for 8 h (AUC8) and 24 h (AUC24) after dosing were estimated using the log- linear trapezoidal algorithm. Routines provided in the Data Analysis ToolPak of Microsoft Excel 2003 (11.8231.8221) SP3, Professional Edition (Redmond, WA), were used for the descriptive statistics and statistical tests. Arithmetic averages and standard deviations were calculated for the time of the maximum drug concentration in plasma (tmax). Geometric means were calculated for all other pharmacokinetic variables. The jackknife technique was used to estimate the standard deviation of geometric means.

[2] = tested on: patients with newly diagnosed glioblastoma; test: Phase I dose-limiting toxicities / adverse events (CTCAE v.3.0); format: in vivo
Procedure: This was an open-label, multi-center, phase 1 study. The maximum tolerated dose (MTD) was a dose producing a dose-limiting-toxicity (DLT) rate at 33% or less. A modified 3 + 3 design with 6 patients per dose cohort was used due to 10 weeks long safety evaluation period that potentially 40–50% patient might drop-out study for early disease progression.
The initial safety group of up to 6 patients included patients who had recently completed standard concurrent RT/TMZ) were then treated with one cycle of low-dose veliparib 10 mg BID along with 6 weeks of once-a day (QD) temozolomide 75 mg/m2/d (no RT). Once this one cycle was complete, patients were permitted to transition to monthly cycles of standard adjuvant temozolomide 150–200 mg/m2/d for five consecutive days each month.
If safety was confirmed, then the phase I component including radiotherapy would proceed enrolling cohorts of 6 patients to pre-specified escalating dose levels of daily veliparib, ranging from 10 mg BID to 100 mg twice-daily BID daily along with TMZ (75 mg/m^2/d) for 6 weeks in conjunction with standard radiation 60 Gy in 30 fractions.The protocol specified that if excessive toxicity occurred, de-escalation could be introduced by joint decision of study PI, sponsor, and ABTC leadership to a choice of veliparib 10 mg daily, 10 mg every other day or 10 mg BID 1 week on/1 week off for the 6-week period.
DLTs were events considered possible or probably related to veliparib alone, veliparibib/TMZ or Veliparib/RT per CTCAE v.3.0 including: ≥ grade 3 nonhematological toxicities not resolving with anticonvulsants or steroid treatment excluding grade 3 nausea and dermatitis. Hematologic toxicity was considered dose limiting if there was 1) ANC ≤ 500/mm^3; 2) Platelets ≤ 25,000/mm^3; 3) Grade 3 toxicity that prevents administration of > 75% of the planned temozolomide doses for the first cycle; 4) interruption of treatment for > 14 days. All subjects were monitored for safety throughout the trial.

[3] = tested on: patients with newly diagnosed glioblastoma; test: Survival from the date of study enrollment; format: in vivo; conditions: all patients on study
Excerpt: All subjects were followed until death, and survival from the date of study enrollment was reported to evaluate for any unexpected adverse results.

[4] = set-up: method as in PMID 17473206; conditions: rodent model; cited from earlier work
[5] = set-up: method as in PMID 17473206; conditions: preclinical, oral; cited from earlier work
[6] = set-up: method as in PMID 19364967; conditions: phase 0 clinical trial, oral; cited from earlier work
[7] = tested on: patients with MGMT methylation; set-up: method as in doi:10.1200/JCO.2022.40.16_suppl.2001; conditions: cited from earlier work
[8] = tested on: brain metastasis; set-up: method as in PMID 25682091; conditions: Veliparib 40 mg BID or 200 mg BID added to whole brain radiotherapy; cited from earlier work
[9] = set-up: method as in PMID 28243955, PMID 28497258, PMID 30456480, PMID 27503200, PMID 21795476; conditions: cited from earlier work
[10] = set-up: method as in PMID 26202595; conditions: cited from earlier work
[11] = Single dose 10 mg Veliparib, n=16
[12] = Steady-state 10 mg BID Veliparib, week 3, n=18

## C[C@]1(c2nc3c(C(N)=O)cccc3[nH]2)CCCN1 [Veliparib]
[1]; BID dosing
  Accumulation for BID dosing: 56%
[1]; Single (initial) dose 10 mg Veliparib, n=16
  CL/F, apparent oral clearance: 27.0 ± 9.0 L/h and 27.0 ± 9.2 L/h
[1]; [11]
  t1/2,z apparent terminal phase half-life: 5.8 ± 0.9 h
  Cmax: 50.3 ± 19 ng/mL
[1]; Single dose 10 mg Veliparib, n=16, geometric mean ± SD
  Cmin, minimum drug concentration in plasma: 2.5 ± 1.3 ng/mL
[1]; Steady-state 10 mg BID Veliparib, n=18
  CL/F, apparent oral clearance: 23.5 ± 10.4 L/h
[1]; [12]
  Cmin, minimum drug concentration in plasma: 18.4 ± 10.4 ng/mL
  Cmax: 66.1 ± 28.7 ng/mL
[1]; Steady-state 10 mg BID dosing
  Accumulation: 56%
[1]; veliparib 20 mg BID concurrently with daily temozolomide (so in the source)
  Peak and trough concentrations throughout six weeks of daily dosing: remains stable
[2]; 12 patients, veliparib 10 mg BID + TMZ + RT
  Patients with platelets <25,000/mm^3: 3 patients
[2]; human, in vivo, 6 weeks
  Anemia: 1 (4.2) n (%)
  Any adverse event (dose limiting, possibly related): 11 (45.8) n (%)
  Febrile neutropenia: 1 (4.2) n (%)
  Neutropenia: 2 (8.3) n (%)
  Pancytopenia: 1 (4.2) n (%)
  Subjects with ≥ 1 AE (Blood and Lymphatic Systemic Disorders): 9 (37.5) n (%)
  Thrombocytopenia: 7 (29.2) n (%)
[2]; in vivo
  Number of dose limiting toxicities (DLT): one
[2]; with TMZ and six weeks of standard radiation, even with 50% dose reductions
  Tolerable dose (maximum tolerated dose): a tolerable dose of veliparib could not be found
[3]
  Survival at 2 years: 25%
[3]; 95%CI: 8–16 months
  Median survival: 13 months
[4]
  Crossing of the blood brain barrier: cross the blood brain barrier
[5]
  Bioavailability: good bioavailability
[6]
  Bioavailability: good bioavailability
[7]; veliparib 40 mg BID each day of standard adjuvant TMZ (days 1–5) after concurrent RT/TMZ
  Hematologic toxicity (neutropenia, thrombocytopenia, and anemia): increased but acceptable hematologic toxicity
[7]; veliparib 40 mg BID each day of standard adjuvant TMZ (days 1–5)
  Survival benefit: without survival benefit
[8]
  Adverse events compared with placebo: no increase in adverse events
[9]
  Effect of TMZ co-administration on the clearance of veliparib: no effect
[10]
  Effect of veliparib coadministration on TMZ plasma exposures: does not affect
